One test has as its system leech ganglion neurons. The test can be described thus: Ex vivo leech ganglion neuron recording. Particulars: ex vivo ganglia. It counts as cell-based, Hirudo verbana. The protocol:
Adult leeches Hirudo verbana will be obtained from Niagara Medical Leeches, Inc. (Westbury, N.Y., USA). Groups (20-30) of animals will be kept in glass aquaria with artificial pond water (36 mg/L Instant Ocean salts; Aquarium Systems, Mentor Ohio), in a temperature-controlled room at 16° C. and a 12:12 h light:dark cycle. At the time of experiments, leeches will weigh 1-3 g. Before dissection, the leech will be anesthetized in ice-cold leech saline. Leech saline has the following composition (in mM per liter): NaCl-115, KCl-4, CaCl2-1.8, MgCl2-2, HEPES-10, D-Glucose-5 (Sigma-Aldrich, USA). Individual ganglia will be dissected from the mid-body segments M6-M12, and pinned down in Sylgard-filled dissection box. Medial dorsal longitudinal incision will be made and the blood will be flushed away. Connective tissue and the blood vessel overlaying the ganglion chain will be incised. Dissected ganglia will be transferred to a Petri dish, pinned down in paraffin with six stainless steel pins (dorsal side up). PVNs will be microinjected into the extracellular space of the ganglion with a glass micropipette. Intracellular recording will be performed by penetrating the Retzius neurons with sharp glass electrodes (20-30 MOhm) filled with 3M potassium acetate. […] Neuronal firing will be recorded before and after the injections.

A further test relates to INS and HEK293T cells. Kind of test: Time course of light-induced membrane potential change in single cells (patch clamp). The format is cell-based. The protocol:
(§1) Membrane potential was monitored using whole cell patch clamp in current-clamp mode. Cultured cells (INS and HEK293) were plated on a glass-bottomed culture dishes 1-3 days prior to recording. Cells were incubated in standard extracellular solution with or without 10 μM RubpyC17 compound for approximately 1.5-2 minutes, then washed and incubated with standard extracellular solution without additional supplementation, or with 2-5 mM ascorbate, 100 μM sodium ferrocyanide, or 100-200 μM potassium ferricyanide, as indicated. The chamber was transferred to the microscope stage. Extracellular solution consisted of 140 mM NaCl, 2.8 mM KCl, 10 mM HEPES, 1 mM MgCl2, 2 mM CaCl2, 10 mM glucose, pH adjusted to 7.3, and osmolarity adjusted to 300-310. Conventional whole-cell patch clamp recordings were performed with an EPC-9 amplifier and Pulse software (HEKA Electronics). Pipette electrodes of 1.8-3.5 Mohm were fire polished before use. Intracellular solution consisted of: 145 mM KCl, 10 mM NaCl, 1 mM MgCl2, 1 mM EGTA, 2 mM ATP, 0.3 mM GTP and 10 mM HEPES, pH adjusted to 7.3 and osmolarity adjusted to 290-300 mOsm. To monitor changes in membrane voltage/potential, cells were patch clamped in current-clamp mode. Access resistances were in the range of 3-8 Mohm. Using Pulse, membrane potentials were recorded before, during and after illumination by the argon ion laser at 488 nm with an irradiance value of 0.458 mE s^−1 m^−2 or by a xenon lamp source through a 470/40 nm bandpass excitation filter with an irradiance value of 0.480 mE s^−1 m^−2. The duration of illumination varied and the timing is indicated by bars on the figures.
It was discovered that luminescent cells undergo depolarization when illuminated for 25 seconds or longer when reductants (e.g., ascorbate) are present or for 10 seconds or longer when oxidants (e.g., ferricyanide) are present (FIG. 2A). Other oxidants or reductants are used in several embodiments, such as those that are, normally present (or biologically compatible) in the environment of a certain target tissue. In several embodiments, it is possible that light-induced depolarization or hyperpolarization amplitude or rate is controlled by varying illumination time or intensity.
To reach a maximum effect, the light-triggered depolarization in RubpyC17-treated cells requires on the order of 30 seconds of continuous illumination at 0.46-0.48 mE s−1 m2 (FIGS. 2B-F) The time course observed is dependent on several factors, and may be greater or lesser during in vivo applications. One, it is related to the probability of photon absorption per unit time by membrane-associated RubpyC17, which depends on the concentration of RubpyC17, the partitioning into the membrane, and the photon flux. […]

A further test has as its system HEK293T cells. Kind of test: Whole cell patch clamp, current-clamp membrane potential under blue light. The format is cell-based, human. The protocol: as §1, with “The duration of illumination varied and the timing is indicated by bars on the figures.” left out
Initial attempts were tied to INS and HEK cells, both cells that are not excitable under normal conditions (INS cells were maintained in low glucose <3 mM to prevent action potentials). […] To monitor the plasma membrane potential, the cells were patch-clamped in whole-cell configuration in current-clamp mode and membrane voltages were recorded while illuminating the cell at 488 nm (0.46-0.48 mE s^−1 m^−2), though other wavelengths are useful, depending on the embodiment.

One substance from patent US10406227B2, “Photoactivated molecules for light-induced modulation of the activity of electrically excitable cells and methods of using same” (University of Southern California, priority 2012, dated 2019) can be followed below.

“Also recorded” adds a separate entry of the source. Where only a bound is given, the exact number is not on record here.

Turning to [Ru(bpy)2(bpy-C17)](PF6)2 [RubpyC17], the “light-induced action potential firing” value in the test with leech ganglion neurons is recorded as “respond to illumination by firing action potentials; also recorded: light-induced increases in action potential firing”. Further, the “continuous illumination to reach maximum depolarization” value in the test with INS and HEK293T cells (0.46-0.48 mE s−1 m2) is about 30 s. The “illumination duration giving membrane potential change” value is at least 10 s in the test with INS and HEK293T cells (oxidants (e.g., ferricyanide) present); at least 25 s in the test with INS and HEK293T cells (reductants (e.g., ascorbate) present). Further, the “reversibility of light-induced depolarization” value with INS and HEK293T cells (presence of reductants) was “appears to be irreversible”. In the test on HEK293T cells (10 μM ~2 min preincubation, 2 mM ascorbate, 488 nm), this substance displayed a light-induced depolarization of 14.6 ± 2.4 mV. The substance further displayed a light-induced hyperpolarization with HEK293T cells (100 uM ferricyanide in extracellular solution) of 20.9 ± 4.9 mV. Further, the “light-induced depolarization with ferrocyanide as reductant” value in the test on HEK293T cells (0.1 mM ferrocyanide) is on record as “light-induced depolarization was also observed”.
